Experimental data as given in ChEMBL document CHEMBL1145902, “Design and synthesis of a potent and selective triazolone-based peroxisome proliferator-activated receptor alpha agonist” (J Med Chem, 2003).
The source made the active and inactive calls. The rule behind the calls is not given here.

Columns and labels:
Mus musculus [1] = species on record: Mus musculus; assay: animal or person; format: functional; conditions: Serum
Mus musculus [2] = species on record: Mus musculus; format: functional
Mus musculus [3] = species on record: Mus musculus; assay: animal or person; format: functional
[4] = molecular target: T1, Peroxisome proliferator-activated receptor alpha (Homo sapiens, UniProt Q07869)
T1 sequence (Q07869 whole entry): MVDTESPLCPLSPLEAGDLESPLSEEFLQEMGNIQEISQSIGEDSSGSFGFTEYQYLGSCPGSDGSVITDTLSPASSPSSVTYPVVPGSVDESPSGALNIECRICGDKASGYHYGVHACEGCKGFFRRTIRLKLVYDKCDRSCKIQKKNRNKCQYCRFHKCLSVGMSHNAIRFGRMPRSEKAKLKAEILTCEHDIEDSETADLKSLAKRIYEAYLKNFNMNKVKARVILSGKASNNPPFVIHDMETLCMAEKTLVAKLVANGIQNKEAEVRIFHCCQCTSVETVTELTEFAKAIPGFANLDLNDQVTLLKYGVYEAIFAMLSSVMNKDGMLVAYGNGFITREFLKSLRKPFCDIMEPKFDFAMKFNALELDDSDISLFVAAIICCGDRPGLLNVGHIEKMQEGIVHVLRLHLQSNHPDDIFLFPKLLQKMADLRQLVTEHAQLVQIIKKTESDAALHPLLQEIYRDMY

[5] = molecular target: T2, Peroxisome proliferator-activated receptor delta (Homo sapiens) (UniProt Q03181)
T2 sequence (whole entry): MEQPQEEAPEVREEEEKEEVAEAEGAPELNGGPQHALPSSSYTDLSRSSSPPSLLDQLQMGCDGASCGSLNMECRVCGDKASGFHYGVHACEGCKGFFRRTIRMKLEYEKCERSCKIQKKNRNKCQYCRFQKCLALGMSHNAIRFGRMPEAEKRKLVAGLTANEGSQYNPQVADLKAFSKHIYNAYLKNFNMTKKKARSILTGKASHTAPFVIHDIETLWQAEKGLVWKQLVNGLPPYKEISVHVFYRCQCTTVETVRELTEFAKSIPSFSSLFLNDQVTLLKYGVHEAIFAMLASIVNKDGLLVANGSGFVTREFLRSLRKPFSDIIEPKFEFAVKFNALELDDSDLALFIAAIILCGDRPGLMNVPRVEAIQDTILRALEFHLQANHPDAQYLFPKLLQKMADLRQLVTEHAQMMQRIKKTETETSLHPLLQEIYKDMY

[6] = molecular target: T3, Peroxisome proliferator-activated receptor gamma (Homo sapiens) (UniProt P37231)
T3 sequence (whole entry): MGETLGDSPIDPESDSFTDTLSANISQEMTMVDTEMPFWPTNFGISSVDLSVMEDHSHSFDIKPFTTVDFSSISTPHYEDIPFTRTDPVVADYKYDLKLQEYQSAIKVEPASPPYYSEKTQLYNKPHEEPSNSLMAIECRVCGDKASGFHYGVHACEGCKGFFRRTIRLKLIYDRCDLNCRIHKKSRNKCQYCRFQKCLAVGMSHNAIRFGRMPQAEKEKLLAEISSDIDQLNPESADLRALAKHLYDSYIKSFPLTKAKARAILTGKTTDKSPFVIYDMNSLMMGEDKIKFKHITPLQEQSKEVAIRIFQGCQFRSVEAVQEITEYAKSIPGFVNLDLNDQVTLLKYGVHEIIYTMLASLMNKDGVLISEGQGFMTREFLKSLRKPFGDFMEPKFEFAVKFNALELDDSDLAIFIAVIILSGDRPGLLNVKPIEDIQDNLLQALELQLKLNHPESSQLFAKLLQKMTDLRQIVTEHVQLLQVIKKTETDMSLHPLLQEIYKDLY

[7] = molecular target: T1, Peroxisome proliferator-activated receptor alpha; format: functional
[8] = molecular target: T4, Peroxisome proliferator-activated receptor delta (Homo sapiens, UniProt Q03181)
T4 sequence (Q03181 whole entry): T2 sequence (whole entry)

Mus musculus [9] = species on record: Mus musculus; assay: animal or person; format: functional; remark: listed apart in the source
[10] = molecular target: T1, Peroxisome proliferator-activated receptor alpha; format: functional; remark: listed apart in the source
[11] = molecular target: T2, Peroxisome proliferator-activated receptor delta (Homo sapiens); remark: listed apart in the source
[12] = molecular target: T5, Peroxisome proliferator-activated receptor gamma (Homo sapiens, UniProt P37231); format: functional
T5 sequence (P37231 whole entry): T3 sequence (whole entry)

IC50 [4] | IC50 [8] | EC50 [10] | Compound | also measured
– | – | – | CC(C)OC(=O)C(C)(C)Oc1ccc(C(=O)c2ccc(Cl)cc2)cc1 [FENOFIBRATE] | ED50 (Mus musculus [1]): 79 mg/kg; Increase (Mus musculus [2]): 120%; ED50 (Mus musculus [3]): 110 mg/kg
24000 nM | – | – | CC(C)(Oc1ccc(C(=O)c2ccc(Cl)cc2)cc1)C(=O)O [FENOFIBRIC ACID] | NB [5]: inactive; NB [6]: inactive; EC50 [7]: 13000 nM
– | 3800 nM | – | Cc1ccc(Cn2nc(CCCc3ccc(OC(C)(C)C(=O)O)cc3)nc2O)cc1 [LY-518674] | Increase (Mus musculus [2]): 210%; ED50 (Mus musculus [9]): 0.1 mg/kg; ED50 (Mus musculus [3]): 0.3 mg/kg
960 nM | – | 2700 nM | Cc1ccc(Cn2nc(CCCc3ccc(OC(C)(C)C(=O)O)cc3)n(CC(=O)O)c2=O)cc1 | NB [11]: inactive
– | – | 2200 nM | CCCCCCn1c(CCc2ccc(OC(C)(C)C(=O)O)cc2)nn(Cc2cccc(OC)c2)c1=O | EC50 [12]: 2600 nM
220 nM | 1500 nM | 220 nM | CCCn1c(CCCc2ccc(OC(C)(C)C(=O)O)cc2)nn(C(C)c2ccccc2)c1=O (configuration not stated) | –
– | – | 2800 nM | CCCn1c(CCc2ccc(OC(C)(C)C(=O)O)cc2)nn(Cc2ccc(C)cc2)c1=O | EC50 [12]: 2900 nM
19 nM | 2000 nM | 31 nM | CCCn1c(CCCc2ccc(OC(C)(C)C(=O)O)cc2)nn(Cc2cccc(OC)c2)c1=O | –
27 nM | 4100 nM | 88 nM | Cc1ccc(Cn2nc(CCCc3ccc(OC(C)(C)C(=O)O)cc3)n(CCO)c2=O)cc1 | –
